In patent US20170050962A1, “IMIDAZO[1,2-A]PYRIDINES AS STIMULATORS OF SOLUBLE GUANYLATE CYCLASE FOR TREATING CARDIOVASCULAR DISEASES” (BAYER PHARMA AKTIENGESELLSCHAFT, priority 2014, published 2017):

System: recombinant guanylate cyclase reporter cell line
Experiment: Effect on a recombinant guanylate cyclase reporter cell line
Format: cell-based
Settings: in some cases mean values for individual determinations
Description: B-2. Effect on a Recombinant Guanylate Cyclase Reporter Cell Line
The cellular activity of the compounds according to the invention is determined using a recombinant guanylate cyclase reporter cell line, as described in F. Wunder et al., Anal. Biochem. 339, 104-112 (2005).
Representative MEC values (MEC=minimum effective concentration) for the compounds of the invention are shown in the table below (in some cases as mean values for individual determinations): […]

SMILES | MEC (minimum effective concentration) [µM]
Cc1cc(OCc2c(F)cccc2F)c2nc(C)c(C3=CC(=NO)CC(C)(C)N3)n2c1 (stereo in doubt) [Example 5, (4E)-6-{8-[(2,6-Difluorobenzyl)oxy]-2,6-dimethylimidazo[1,2-a]pyridin-3-yl}-N-hydroxy-2,2-dimethyl-2,3-dihydropyridine-4(1H)-imine] | 0.03
Cc1cc(OCc2c(F)cccc2F)c2nc(C)c(-c3ccn(CC(C)(C)N)c(=O)c3)n2c1 [Example 3, 1-(2-Amino-2-methylpropyl)-4-{8-[(2,6-difluorobenzyl)oxy]-2,6-dimethylimidazo[1,2-a]pyridin-3-yl}pyridin-2(1H)-one] | 1.0
Cc1cc(OCc2c(F)cccc2F)c2nc(C)c(-c3cc[nH]c(=O)c3)n2c1 [Example 8, 4-{8-[(2,6-Difluorobenzyl)oxy]-2,6-dimethylimidazo[1,2-a]pyridin-3-yl}pyridin-2(1H)-one] | 1.0
Cc1cc(OCc2c(F)cccc2F)c2nc(C)c(-c3nc(OCC(C)(C)N)n[nH]3)n2c1 [Example 6, 1-[(5-{8-[(2,6-Difluorobenzyl)oxy]-2,6-dimethylimidazo[1,2-a]pyridin-3-yl}-1H-1,2,4-triazol-3-yl)oxy]-2-methylpropan-2-amine] | 3.0
Cc1cc(OCc2c(F)cccc2F)c2nc(C)c(-c3ccc(=O)n(CC(C)(C)N)c3)n2c1 [Example 1, 1-(2-Amino-2-methylpropyl)-5-{8-[(2,6-difluorobenzyl)oxy]-2,6-dimethylimidazo[1,2-a]pyridin-3-yl}pyridin-2(1H)-one] | 1.0
Cc1cc(OCc2c(F)cccc2F)c2nc(C)c(-c3ccnc(OCC(C)(C)N)c3)n2c1 [Example 4, 1-[(4-{8-[(2,6-Difluorobenzyl)oxy]-2,6-dimethylimidazo[1,2-a]pyridin-3-yl}pyridin-2-yl)oxy]-2-methylpropan-2-amine] | 0.03
Cc1cc(OCc2c(F)cccc2F)c2nc(C)c(-c3ccc(OCC(C)(C)N)nc3)n2c1 [Example 2, 1-[(5-{8-[(2,6-Difluorobenzyl)oxy]-2,6-dimethylimidazo[1,2-a]pyridin-3-yl}pyridin-2-yl)oxy]-2-methylpropan-2-amine] | 0.3
